Like-named read-outs stand apart in the source and are kept apart here.
Columns and labels:
[1] = Cytotoxicity assay (CellTiter-Glo) on normal human dermal fibroblasts; type: cell-based; details: normal human dermal fibroblasts (NHDF)
Protocol: The cytotoxicity of the compounds was evaluated in nontumor normal human dermal fibroblasts (NHDF) purchased from ATCC (PCS-201-012, Manassas, VA, USA). The cells were negatively tested for the presence of mycoplasma (cat. #: LT07-318 MycoAlert Mycoplasma Detection kit, Lonza). The cells were cultivated in DMEM high glucose 4.5 g/L medium (cat. #: R8758, Merck, Germany). The medium was supplemented with 10% fetal bovine serum (cat. #: F7524, Merck, Germany; inactivated at 56 °C for 30 min) and 1.0% of L-glutamine (cat. #: G7513, Merck, Germany) without antibiotics. Cells were seeded in 384-well format white micro plates (cat. #: 164610, Nunc, Thermo Fisher Scientific, USA) at a concentration of 60,000 cells per mL and left to rest overnight. Next day, 1 and 10 μM concentrations of the tested compounds were added in triplicates. The cells were cultivated at 37 °C and 5% CO2 for 72 h after which a luminescent cell viability assay (CellTiter-Glo 2.0, cat. #: Promega, Madison, USA) was added. The plate was left on a shaker (350 rpm) in the dark for 20 min at RT. Luminescence was measured by a Spark multimode reader from Tecan (Tecan Group Ltd., Switzerland). The signal of the compound-treated cells was related to the value of the untreated control, which was arbitrarily set to 100% viability.

P-gp (human MDR1) = experiment: in vitro; details: dog, MDCK-MDR1
Protocol: (§2) Canine MDR1 Knockout, Human MDR1 Knockin MDCKII cells (Sigma-Aldrich) were employed to estimate CNS permeability of the compounds. Briefly, the cells were seeded at a density of 30,000 cells per 24-well plate insert of the Transwell sandwich (CellQART, SABEU GmbH&Co.KG, Germany). They were left to differentiate for 5 days with medium exchange every other day. […] The treated cells were then returned to the incubator for 2 h at 37 °C. After that, samples were collected from both apical inserts and basolateral wells and analyzed using LC–MS (Triple Quad 6500+, Sciex). LY permeation was used to check for the integrity of monolayer in each sample. […] Only wells displaying LY permeability <2% were qualified for compound transport quantification. Apparent permeability coefficients (Papp's), efflux ratios, and recoveries for the compounds were calculated as described in Section 4.2.8. The data represent means ± SD of two independent experiments performed in triplicate.

in vitro [2] = details: dog, MDCK-MDR1
Protocol: as §2

[3] = Plasma stability assay, human plasma; type: in vitro ADME; details: pooled plasma, read-out: Plasma stability % remaining at 6 h, hum
Protocol: […] The reactions were terminated by adding 4 vol of ice-cold methanol, and the samples were then mixed vigorously, frozen at −20 °C for 1 h, and left overnight at 8 °C. After that, the samples were centrifuged, and the supernatant was analyzed by means of LC–MS/MS Sciex 6500 triple quadrupole (Sciex, Framingham, MA, USA). Zero time points were prepared by adding ice-cold methanol to the compound prior to the addition of the plasma.

[4] = Microsomal stability, human liver microsomes; type: in vitro ADME; details: pooled liver microsomes, pH 7.4, read-out: Microsomal stability CLint, hum
Protocol: (§1) . Zero time points were prepared by adding ice-cold methanol to a mixture of the compound with cofactors prior to the addition of microsomes. […]. Intrinsic clearance (CLint) was calculated using the following formula: [drawing 1] where V = incubation volume per milligram of microsomal protein (μL/mg) and t1/2 = microsomal half-life.

[5] = Plasma stability assay, rat plasma; type: in vitro ADME
in vitro [6] = type: in vitro ADME; details: human, Caco-2
Protocol: A Transwell system consisting of two compartments separated by a monolayer of differentiated Caco-2 cells was employed for the intestinal permeability evaluation. Thanks to the ability of Caco-2 cells to become polarized, bidirectional transport (A–B and B–A) could be measured and the efflux ratio calculated.
The transepithelial bidirectional transport of tested compounds (5 μM, pH 7.4/7.4) across the Caco-2 monolayers was studied using the BD BioCoat HTS Caco-2 assay system (BD Biosciences, Bedford, MA) as described in detail elsewhere.[47] Aliquots were collected from the donor and acceptor compartment at the end of the transport period (3 h), the integrity of monolayers was verified using Lucifer Yellow dye, and the compounds were quantified using LC–MS/MS (Triple Quad 6500+, Sciex). The apparent permeability coefficient (Papp) was calculated from the following equation: Papp = (dQ/dt)/C0 × A, where dQ/dt is the rate of absorption of the drug across the cells, C0 is the donor compartment concentration at time zero, and A is the area of the monolayer. The efflux ratio was expressed as (Papp B–A)/(Papp A–B). Recovery (%) was determined as (total compound mass in donor and receiver compartments at the end of the incubation/initial compound mass in the donor compartment) × 100.

ADRA1A = target: T1, ADRA1A (Homo sapiens, UniProt P35348); details: read-out: ADRA1A IC50; antagonist activity, receptor stimulated with EC80 of epinephrine, Chem-1 cells
T1 sequence (P35348 1-466): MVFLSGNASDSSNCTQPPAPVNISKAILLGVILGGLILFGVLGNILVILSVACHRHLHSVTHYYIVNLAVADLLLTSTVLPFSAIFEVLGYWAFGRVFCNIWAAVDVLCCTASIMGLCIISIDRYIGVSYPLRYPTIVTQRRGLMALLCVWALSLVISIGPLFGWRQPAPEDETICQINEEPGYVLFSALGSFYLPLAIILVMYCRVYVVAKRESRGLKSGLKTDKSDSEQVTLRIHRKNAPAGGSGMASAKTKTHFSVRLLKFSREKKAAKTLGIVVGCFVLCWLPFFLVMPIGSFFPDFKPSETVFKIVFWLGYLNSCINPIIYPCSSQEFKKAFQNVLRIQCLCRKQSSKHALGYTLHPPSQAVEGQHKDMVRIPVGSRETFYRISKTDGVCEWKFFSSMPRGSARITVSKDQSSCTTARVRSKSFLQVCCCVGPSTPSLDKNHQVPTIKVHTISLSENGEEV
Protocol: All prepared compounds were tested for their antagonistic activity using calcium flux assays on cells overexpressing the ADRA2A or ADRA1A adrenergic receptor as a primary screen (Table 2).
Chem-1 cells overexpressing ADRA2A or 1A adrenergic receptors were purchased from Merck Millipore (cat. #: HTS096RTA and HTS087RTA; Merck, Germany). The cells were cultured according to the manual. […] After 30 min of incubation with the assay buffer at 37 °C and 5% CO2, the cells were incubated at RT in a dark place for another 15 min. […] All compounds were added by an Agilent Bravo Automated Liquid Handling Platform (Agilent Technologies, USA). […] Before each kinetic measurement, the background fluorescence (F0) was measured, and the result was calculated as (Fmax – F0)/F0.

[7] = Microsomal stability, rat liver microsomes; type: in vitro ADME; details: pH 7.4
Protocol: as §1

D3 receptor = details: cited from earlier work
D2 receptor = details: cited from earlier work
[8] = 10 uM, read-out: NHDF viability at 10 uM (supplement csv)
[9] = 10 μM, untreated control = 100%, read-out: NHDF Viability 10 μM
[10] = human liver microsomes 0.5 mg/mL, 10 μM compound

Protocol for MDCKII-MDR1 cells: as §2

SMILES | viability at 72 h, 1 µM [1] [%] | viability at 72 h, 10 µM [1, 8] [%] | viability at 72 h, 10 µM [1, 9] [%] | remaining at 6 h, 5 μM ([3]; human plasma, 5 μM, 37 °C) [%] | microsomal CLint at 10 µM [4, 10] [µL/min/mg] | remaining at 6 h, 5 μM [5] [%] | IC50 (ADRA1A) [nM] | microsomal CLint at 10 µM ([7]; rat liver microsomes) [µL/min/mg] | also measured
N[C@H]1C[C@H](OC(=O)[C@@H]2[C@H]3C[C@H]4c5[nH]c6ccccc6c5CCN4C[C@@H]3CC[C@@H]2O)C1 [Compound 4n, 17-α-Hydroxyyohimban-16-α-carboxylic Acid trans-3-Aminocyclobutyl Ester] | 93 | 89 | 89 | 99 | 2 ± 1 | 84 ± 2 |  |  | Papp A→B at 2 h, 10 µM (P-gp (human MDR1)): 0.9 ×10⁻⁶ cm/s; Papp B→A at 2 h, 10 µM (P-gp (human MDR1)): 3.5 ± 1.4 ×10⁻⁶ cm/s; recovery at 2 h, 10 µM (in vitro [2]): 100%; recovery at 3 h, 5 µM (in vitro [6]): 103%; Papp A→B at 3 h, 5 µM (in vitro [6]; 5 μM, pH 7.4/7.4, 3 h, read-out: Caco-2 permeability Papp A–B): 3 ± 1 ×10⁻⁶ cm/s; recovery (B–A) in MDCKII-MDR1 cells (MDCKII-MDR1 cells; B–A direction): 98%; P-gp transporter substrate (MDCKII-MDR1 cells; MDCKII-MDR1 cells): substrate for the P-gp transporter
O=C(OC1COC1)[C@@H]1[C@H]2C[C@H]3c4[nH]c5ccccc5c4CCN3C[C@@H]2CC[C@@H]1O [Compound 4r, 17-α-Hydroxyyohimban-16-α-carboxylic Acid Oxetan-3-yl Ester] |  | 102 |  |  |  | 89 ± 1 | 1940 |  | microsomal CLint at 10 µM ([7]; rat, liver microsomes): 2 ± 1 µL/min/mg; remaining at 6 h, 5 μM ([3]; human): 94 ± 14%; microsomal CLint at 10 µM ([4]; human): 16 ± 1 µL/min/mg
O=C(OC1CCCC1)[C@@H]1[C@H]2C[C@H]3c4[nH]c5ccccc5c4CCN3C[C@@H]2CC[C@@H]1O [Compound 3d, 17-α-Hydroxyyohimban-16-α-carboxylic Acid Cyclopentyl Ester] | 113 | 113 | 117 |  |  |  | 2640 |  | 
O=C(O[C@H]1CCOC1)[C@@H]1[C@H]2C[C@H]3c4[nH]c5ccccc5c4CCN3C[C@@H]2CC[C@@H]1O [Compound 4q, 17-α-Hydroxyyohimban-16-α-carboxylic Acid (S)-Tetrahydrofuran-3-yl Ester] |  |  | 112 | 118 | 15 ± 1 | 102 ± 1 | 537 | 5 ± 1 | 
COC(=O)[C@@H]1[C@H]2C[C@H]3c4[nH]c5ccccc5c4CCN3C[C@@H]2CC[C@@H]1O [Compound 1, Yohimbine, reference compound] | 112 | 105 | 105 | 106 | 7 ± 1 | 90 ± 2 |  | 2 | affinity toward the D3 receptor (D3 receptor): negligible; D2 receptor pKi (D2 receptor): 6.4; Papp B→A at 3 h, 5 µM (in vitro [6]; 5 μM, pH 7.4/7.4, 3 h, read-out: Caco-2 permeability Papp B–A): 23 ± 8 ×10⁻⁶ cm/s
CCOC(=O)[C@@H]1[C@H]2C[C@H]3c4[nH]c5ccccc5c4CCN3C[C@@H]2CC[C@@H]1O [Compound 3a, 17-α-Hydroxyyohimban-16-α-carboxylic Acid Ethyl Ester] | 111 | 108 | 108 | 109 ± 1 | 14 | 52 | 3340 | 3 | 
CN1CC[C@H](OC(=O)[C@@H]2[C@H]3C[C@H]4c5[nH]c6ccccc6c5CCN4C[C@@H]3CC[C@@H]2O)C1 [Compound 4p, 17-α-Hydroxyyohimban-16-α-carboxylic Acid (S)-N-Methylpyrrolidin-3-yl Ester] | 88 | 80 | 80 | 109 ± 2 | 10 | 85 ± 2 | 3820 | 1 ± 1 | 
CC(C)CCOC(=O)[C@@H]1[C@H]2C[C@H]3c4[nH]c5ccccc5c4CCN3C[C@@H]2CC[C@@H]1O [Compound 3c, 17-α-Hydroxyyohimban-16-α-carboxylic Acid (3-Methylbutyl-1-yl) Ester] | 117 | 114 | 114 |  |  |  | 2650 |  | 
CC(C)(C)OC(=O)[C@@H]1[C@H]2C[C@H]3c4[nH]c5ccccc5c4CCN3C[C@@H]2CC[C@@H]1O [Compound 3e, 17-α-Hydroxyyohimban-16-α-carboxylic Acid tert-Butyl Ester] | 123 | 117 | 113 |  |  |  | 10500 |  | 
CC(C)OC(=O)[C@@H]1[C@H]2C[C@H]3c4[nH]c5ccccc5c4CCN3C[C@@H]2CC[C@@H]1O [Compound 3b, 17-α-Hydroxyyohimban-16-α-carboxylic Acid Isopropyl Ester] | 108 | 102 | 102 | 102 | 17 ± 1 | 89 | 4160 | 3 ± 1 | 
